# Test results published in PubChem BioAssay AID2789 (Sanford-Burnham Center for Chemical Genomics, 2010).
# Calls of active or inactive are those of the source. The rule behind the calls is not given here.
# Tested on: NF-kappaB luciferase reporter cells, doxorubicin-induced, luminescence
# Assay: inhibitors of doxorubicin-induced NF-kB reporter, SAR follow-up, cell-based, doxorubicin inducer, luciferase, set 2 (AID 2789)
row,IC50,Compound
1,> 25 µM (inactive),CCCCn1c(SCC(=O)c2ccccc2)nc2c1c(=O)[nH]c(=O)n2C
2,> 25 µM (inactive),CCCCCn1c(SCCc2ccccc2)nc2c1c(=O)[nH]c(=O)n2C
3,> 25 µM (inactive),CC(C)Sc1nc2c(c(=O)[nH]c(=O)n2C)n1Cc1ccccc1
4,> 25 µM (inactive),CCCn1c(SCCc2ccccc2)nc2c1c(=O)[nH]c(=O)n2C
5,> 25 µM (inactive),C/C=C/Cn1c(SCCCc2ccccc2)nc2c1c(=O)[nH]c(=O)n2C
6,> 25 µM (inactive),C=CCn1c(SCCCc2ccccc2)nc2c1c(=O)[nH]c(=O)n2C
7,> 25 µM (inactive),C/C=C/Cn1c(SCc2ccccc2)nc2c1c(=O)[nH]c(=O)n2C
8,> 25 µM (inactive),COCCn1c(SCCCc2ccccc2)nc2c1c(=O)[nH]c(=O)n2C

# The remaining lines, values behind:
row,Compound,IC50
1,CC(C)n1c(SCCCc2ccccc2)nc2c1c(=O)[nH]c(=O)n2C,> 25 µM (inactive)
2,CCCCn1c(SCC(=O)Nc2nnc(CC)s2)nc2c1c(=O)n(C)c(=O)n2C,> 25 µM (inactive)
3,Nc1nc2ccccc2n1CCOc1ccc(Cl)cc1,> 25 µM (inactive)
4,C/C(Cl)=C\Cn1c(NCCc2ccccc2)nc2c1c(=O)n(C)c(=O)n2C,> 25 µM (inactive)
5,Cn1c(=O)[nH]c(=O)c2c1nc([N+](=O)[O-])n2Cc1ccccc1,> 25 µM (inactive)
6,CCCn1c(SCC(=O)Nc2nc3c(s2)CCCC3)nc2c1c(=O)n(C)c(=O)n2C,> 25 µM (inactive)
7,C/C=C/Cn1c(SCc2ccc(Cl)cc2)nc2c1c(=O)[nH]c(=O)n2C,> 25 µM (inactive)
